The record followed here is ChEMBL document CHEMBL4033793, “Potent and Selective Inhibitors of Human Sirtuin 5” (J Med Chem, 2018).

Residues, ends and D or L forms follow the SMILES beside them. *: point of attachment. X71 = O=C(O)[C@@H](CC(=O)*)SCc1cccc(C(F)(F)F)c1; X49 = O=C(O)[C@H](CC(=O)*)SCc1cccc(C(F)(F)F)c1; X62 = Cc1cc(C)c(CS[C@@H](CC(=O)*)C(=O)O)c(C)c1; X63 = O=C(O)[C@@H](CC(=O)*)SCc1ccc(Cl)c(Cl)c1; X28 = O=C(O)[C@@H](CC(=O)*)Sc1ccc(Cl)c(Cl)c1; X39 = O=C(O)[C@H](CC(=O)*)Sc1cc(Cl)cc(Cl)c1; X36 = O=C(O)[C@@H](CC(=O)*)Sc1ccc2ccccc2c1; X41 = O=C(O)[C@@H](CC(=O)*)Sc1cc(Cl)ccc1Cl; X50 = O=C(O)[C@H](CC(=O)*)Sc1cc(Cl)ccc1Cl; X6 = Cc1noc(C)c1CCS[C@@H](CC(=O)*)C(=O)O; X61 = O=C(O)[C@@H](CC(=O)*)Sc1cccc(Cl)c1; X19 = O=C(O)[C@H](CC(=O)*)Sc1ccc(Cl)cc1; X73 = O=C(O)[C@H](CC(=O)*)SCc1ccccc1Cl; X21 = O=C(O)[C@@H](CC(=O)*)SC1CCCCC1; X40 = O=C(O)[C@H](CC(=O)*)SCc1ccccc1; X12 = O=C(O)C(CC(=O)*)SCCc1cnccn1; X44 = CC(CC(=O)*)Sc1ccc2ccccc2c1; X5 = O=C(O)C(CC(=O)*)SCCc1ccccn1; X4 = O=C(O)C(CC(=O)*)Cc1ccccc1; Bz = O=C(c1ccccc1)* A value given as a limit tells only on which side of the number the result lay.

The target in the test is NAD-dependent protein deacylase sirtuin-5, mitochondrial (Homo sapiens, UniProt Q9NXA8). In words: Inhibition of human recombinant N-terminal Strep2-tagged SIRT5 expressed in Escherichia coli BL21 (DE3) using Abz-GVLK(glutaryl)AY(NO2)GV-NH2 as substrate in presence of NAD+ by fluorescence assay.
NAD-dependent protein deacylase sirtuin-5, mitochondrial, sequence (Q9NXA8 whole entry): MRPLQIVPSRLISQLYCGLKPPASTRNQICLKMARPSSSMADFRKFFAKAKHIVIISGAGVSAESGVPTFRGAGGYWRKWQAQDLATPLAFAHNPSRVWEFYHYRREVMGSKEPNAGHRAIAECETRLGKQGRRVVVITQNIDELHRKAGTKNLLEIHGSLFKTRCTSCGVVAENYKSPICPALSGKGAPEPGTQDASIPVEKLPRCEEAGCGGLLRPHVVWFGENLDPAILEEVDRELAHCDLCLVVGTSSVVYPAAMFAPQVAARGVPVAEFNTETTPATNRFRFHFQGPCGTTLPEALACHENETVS
For orientation: IC50 means the concentration needed to halve the response being measured. For `CC(C)C[C@H](NC(=O)[C@@H](NC(=O)CNC(=O)c1ccccc1)C(C)C)C(=O)N[C@@H](CCCCNC(=O)CC(SCCc1ccccn1)C(=O)O)C(=O)N[C@@H](CCC(=O)O)C(=O)N[C@@H](Cc1ccc(O)cc1)C(=O)NCC(=O)N[C@H](C(N)=O)C(C)C` (stereo not given in full) (Bz-GVLK(X5)EYGV-NH2), the IC50 was 6970 nM.
By Ki is commonly meant the equilibrium dissociation constant of an inhibitor or competing ligand from its target. As for `CC(C)C[C@H](NC(=O)[C@@H](NC(=O)CNC(=O)c1ccccc1)C(C)C)C(=O)N[C@@H](CCCCNC(=O)CC(Cc1ccccc1)C(=O)O)C(=O)N[C@@H](CCC(=O)O)C(=O)N[C@@H](Cc1ccc(O)cc1)C(=O)NCC(=O)N[C@H](C(N)=O)C(C)C` (stereo not given in full) (Bz-GVLK(X4)EYGV-NH2), the IC50 is 1120 nM and the Ki was determined as 263 nM.
`CC(C)C[C@H](NC(=O)[C@@H](NC(=O)CNC(=O)c1ccccc1)C(C)C)C(=O)N[C@@H](CCCCNC(=O)C[C@@H](Sc1ccc(Cl)c(Cl)c1)C(=O)O)C(=O)N[C@@H](CCC(=O)O)C(=O)N[C@@H](Cc1ccc(O)cc1)C(=O)NCC(=O)N[C@H](C(N)=O)C(C)C` (Bz-GVLK(X28)EYGV-NH2): the IC50 turned out to be 1610 nM.
On the same count and under the same terms, the same measure for `CC(C)C[C@H](NC(=O)[C@@H](NC(=O)CNC(=O)c1ccccc1)C(C)C)C(=O)N[C@@H](CCCCNC(=O)C[C@H](Sc1ccc(Cl)cc1)C(=O)O)C(=O)N[C@@H](CCC(=O)O)C(=O)N[C@@H](Cc1ccc(O)cc1)C(=O)NCC(=O)N[C@H](C(N)=O)C(C)C` (Bz-GVLK(X19)EYGV-NH2): 102 nM; for `Cc1noc(C)c1CCS[C@@H](CC(=O)NCCCC[C@H](NC(=O)[C@H](CC(C)C)NC(=O)[C@@H](NC(=O)CNC(=O)c1ccccc1)C(C)C)C(=O)N[C@@H](CCC(=O)O)C(=O)N[C@@H](Cc1ccc(O)cc1)C(=O)NCC(=O)N[C@H](C(N)=O)C(C)C)C(=O)O` (Bz-GVLK(X6)EYGV-NH2): 8750 nM.
On the same count and under the same terms, the same measure for `CC(C)C[C@H](NC(=O)[C@@H](NC(=O)CNC(=O)c1ccccc1)C(C)C)C(=O)N[C@@H](CCCCNC(=O)C[C@@H](Sc1cccc(Cl)c1)C(=O)O)C(=O)N[C@@H](CCC(=O)O)C(=O)N[C@@H](Cc1ccc(O)cc1)C(=O)NCC(=O)N[C@H](C(N)=O)C(C)C` (Bz-GVLK(X61)EYGV-NH2): 1380 nM; for `CNC(=O)c1cccc(NC(=O)C[C@H](Sc2ccc3ccccc3c2)C(=O)O)c1`: 90000 nM.
`O=C(C[C@H](Sc1ccc2ccccc2c1)C(=O)O)Nc1ccccc1`: the IC50 worked out at 157000 nM.
On the same count and under the same terms, the same measure for `CC(C)C[C@H](NC(=O)[C@@H](NC(=O)CNC(=O)c1ccccc1)C(C)C)C(=O)N[C@@H](CCCCNC(=O)C[C@H](SCc1ccccc1Cl)C(=O)O)C(=O)N[C@@H](CCC(=O)O)C(=O)N[C@@H](Cc1ccc(O)cc1)C(=O)NCC(=O)N[C@H](C(N)=O)C(C)C` (Bz-GVLK(X73)EYGV-NH2): 533 nM.
Turning to `CC(C)C[C@H](NC(=O)[C@@H](NC(=O)CNC(=O)c1ccccc1)C(C)C)C(=O)N[C@@H](CCCCNC(=O)C[C@H](SCc1cccc(C(F)(F)F)c1)C(=O)O)C(=O)N[C@@H](CCC(=O)O)C(=O)N[C@@H](Cc1ccc(O)cc1)C(=O)NCC(=O)N[C@H](C(N)=O)C(C)C` (Bz-GVLK(X49)EYGV-NH2), the IC50 turned out to be 1120 nM.
For the compound `Cc1cc(C)c(CS[C@@H](CC(=O)NCCCC[C@H](NC(=O)[C@H](CC(C)C)NC(=O)[C@@H](NC(=O)CNC(=O)c2ccccc2)C(C)C)C(=O)N[C@@H](CCC(=O)O)C(=O)N[C@@H](Cc2ccc(O)cc2)C(=O)NCC(=O)N[C@H](C(N)=O)C(C)C)C(=O)O)c(C)c1` (Bz-GVLK(X62)EYGV-NH2), the IC50 was 5200 nM.
Turning to `CC(C)C[C@H](NC(=O)[C@@H](NC(=O)CNC(=O)c1ccccc1)C(C)C)C(=O)N[C@@H](CCCCNC(=O)C[C@H](SCc1ccccc1)C(=O)O)C(=O)N[C@@H](CCC(=O)O)C(=O)N[C@@H](Cc1ccc(O)cc1)C(=O)NCC(=O)N[C@H](C(N)=O)C(C)C` (Bz-GVLK(X40)EYGV-NH2), the IC50 turned out to be 336 nM.
Take `CC(C)C[C@H](NC(=O)[C@@H](NC(=O)CNC(=O)c1ccccc1)C(C)C)C(=O)N[C@@H](CCCCNC(=O)CC(SCCc1cnccn1)C(=O)O)C(=O)N[C@@H](CCC(=O)O)C(=O)N[C@@H](Cc1ccc(O)cc1)C(=O)NCC(=O)N[C@H](C(N)=O)C(C)C` (stereo not given in full) (Bz-GVLK(X12)EYGV-NH2): the IC50 was 22800 nM and the Ki lay within 3.5 to 11 nM.
For the compound `CC(C)C[C@H](NC(=O)[C@@H](NC(=O)CNC(=O)c1ccccc1)C(C)C)C(=O)N[C@@H](CCCCNC(=O)C[C@@H](Sc1cc(Cl)ccc1Cl)C(=O)O)C(=O)N[C@@H](CCC(=O)O)C(=O)N[C@@H](Cc1ccc(O)cc1)C(=O)NCC(=O)N[C@H](C(N)=O)C(C)C` (Bz-GVLK(X41)EYGV-NH2), the IC50 was determined as 1980 nM.
On the same count and under the same terms, the same measure for `CC(C)C[C@H](NC(=O)[C@@H](NC(=O)CNC(=O)c1ccccc1)C(C)C)C(=O)N[C@@H](CCCCNC(=O)C[C@H](Sc1cc(Cl)cc(Cl)c1)C(=O)O)C(=O)N[C@@H](CCC(=O)O)C(=O)N[C@@H](Cc1ccc(O)cc1)C(=O)NCC(=O)N[C@H](C(N)=O)C(C)C` (Bz-GVLK(X39)EYGV-NH2): 86.1 nM; for `CC(C)C[C@H](NC(=O)[C@@H](NC(=O)CNC(=O)c1ccccc1)C(C)C)C(=O)N[C@@H](CCCCNC(=O)C[C@H](Sc1cc(Cl)ccc1Cl)C(=O)O)C(=O)N[C@@H](CCC(=O)O)C(=O)N[C@@H](Cc1ccc(O)cc1)C(=O)NCC(=O)N[C@H](C(N)=O)C(C)C` (Bz-GVLK(X50)EYGV-NH2): 295 nM; for `CC(C)C[C@H](NC(=O)[C@@H](NC(=O)CNC(=O)c1ccccc1)C(C)C)C(=O)N[C@@H](CCCCNC(=O)C[C@@H](Sc1ccc2ccccc2c1)C(=O)O)C(=O)N[C@@H](CCC(=O)O)C(=O)N[C@@H](Cc1ccc(O)cc1)C(=O)NCC(=O)N[C@H](C(N)=O)C(C)C` (Bz-GVLK(X36)EYGV-NH2): 1180 nM.
Same read-out and setting: the same measure for `CC(C)C[C@H](NC(=O)[C@@H](NC(=O)CNC(=O)c1ccccc1)C(C)C)C(=O)N[C@@H](CCCCNC(=O)C[C@@H](SCc1cccc(C(F)(F)F)c1)C(=O)O)C(=O)N[C@@H](CCC(=O)O)C(=O)N[C@@H](Cc1ccc(O)cc1)C(=O)NCC(=O)N[C@H](C(N)=O)C(C)C` (Bz-GVLK(X71)EYGV-NH2): 1150 nM.
Same read-out and setting: the same measure for `CC(C)C[C@H](NC(=O)[C@@H](NC(=O)CNC(=O)c1ccccc1)C(C)C)C(=O)N[C@@H](CCCCNC(=O)CC(C)Sc1ccc2ccccc2c1)C(=O)N[C@@H](CCC(=O)O)C(=O)N[C@@H](Cc1ccc(O)cc1)C(=O)NCC(=O)N[C@H](C(N)=O)C(C)C` (stereo not given in full) (Bz-GVLK(X44)EYGV-NH2): above 40000 nM.
With `CCCCNC(=O)C[C@H](Sc1ccc2ccccc2c1)C(=O)O`, the IC50 is 154000 nM.
Same read-out and setting: to `CC(C)C[C@H](NC(=O)[C@@H](NC(=O)CNC(=O)c1ccccc1)C(C)C)C(=O)N[C@@H](CCCCNC(=O)C[C@@H](SCc1ccc(Cl)c(Cl)c1)C(=O)O)C(=O)N[C@@H](CCC(=O)O)C(=O)N[C@@H](Cc1ccc(O)cc1)C(=O)NCC(=O)N[C@H](C(N)=O)C(C)C` (Bz-GVLK(X63)EYGV-NH2) belongs 780 nM; to `CC(C)C[C@H](NC(=O)[C@@H](NC(=O)CNC(=O)c1ccccc1)C(C)C)C(=O)N[C@@H](CCCCNC(=O)C[C@@H](SC1CCCCC1)C(=O)O)C(=O)N[C@@H](CCC(=O)O)C(=O)N[C@@H](Cc1ccc(O)cc1)C(=O)NCC(=O)N[C@H](C(N)=O)C(C)C` (Bz-GVLK(X21)EYGV-NH2), above 14000 nM.
On to `O=C(C[C@H](Sc1ccc2ccccc2c1)C(=O)O)NCCCc1ccccc1`, for which the IC50 was 72600 nM.
